Measured values as given in the supplement of paper PMC8253809.

Legend:
[1] = tested on: HGGX42 (H3.3 G34R paediatric high-grade glioma line); assay: growth inhibition relative to DMSO (0) and positive control (1) (fraction); higher = more growth inhibition
Procedure: (§1)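 Paxalisib (GDC0084) x mirdametinib (PD0325901) dose matrix on pHGG cell lines and astrocyte controls, 7 days, adherent 384-well. CellTiter-Glo RLU was normalised (no log2) to fractional activity between DMSO (0) and the positive control (1). Each combination was tested in two plate orientations.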

[2] = tested on: HABS (astrocyte control); assay: as above
Procedure: as §1

CC1(C)OCCn2c1nc1c(N3CCOCC3)nc(-c3cnc(N)nc3)nc12 [GDC0084] + O=C(NOC[C@H](O)CO)c1ccc(F)c(F)c1Nc1ccc(I)cc1F [PD0325901]
growth inhibition
Conditions | compound 1 concentration 0.009766 µM | compound 1 concentration 0.01953 µM | compound 1 concentration 0.03906 µM | compound 1 concentration 0.07812 µM | compound 1 concentration 0.15625 µM | compound 1 concentration 0.3125 µM | compound 1 concentration 0.625 µM | compound 1 concentration 1.25 µM | compound 1 concentration 5 µM | compound 1 concentration 20 µM
[1], compound 2 concentration 0.03906 µM | -0.12 | -0.197 | 0.0384 | 0.0281 | 0.284 | 0.461 | 0.656 | 0.736 | 0.874 | 0.903
[1], compound 2 concentration 0.07812 µM | -0.0889 | -0.0669 | -0.00719 | 0.153 | 0.248 | 0.404 | 0.631 | 0.729 | 0.855 | 0.919
[1], compound 2 concentration 0.15625 µM | -0.145 | -0.107 | -0.0597 | 0.0866 | 0.181 | 0.411 | 0.625 | 0.714 | 0.835 | 0.915
[1], compound 2 concentration 0.3125 µM | -0.136 | 0.0502 | -0.0893 | 0.0398 | 0.184 | 0.318 | 0.582 | 0.644 | 0.788 | 0.89
[1], compound 2 concentration 0.625 µM | -0.166 | -0.0808 | -0.0757 | 0.0763 | 0.176 | 0.471 | 0.532 | 0.677 | 0.822 | 0.896
[1], compound 2 concentration 1.25 µM | -0.0698 | -0.0338 | -0.0377 | 0.08 | 0.227 | 0.394 | 0.576 | 0.727 | 0.866 | 0.908
[1], compound 2 concentration 5 µM | 0.307 | 0.337 | 0.354 | 0.431 | 0.481 | 0.564 | 0.688 | 0.774 | 0.907 | 0.95
[1], compound 2 concentration 20 µM | 0.486 | 0.554 | 0.507 | 0.615 | 0.653 | 0.772 | 0.853 | 0.913 | 0.975 | 0.985
[2], compound 2 concentration 0.03906 µM | -0.37 | -0.333 | -0.284 | -0.211 | -0.192 | -0.0322 | 0.16 | 0.363 | 0.773 | 0.974
[2], compound 2 concentration 0.07812 µM | -0.231 | -0.228 | -0.183 | -0.184 | -0.0583 | 0.0322 | 0.187 | 0.365 | 0.734 | 0.954
[2], compound 2 concentration 0.15625 µM | -0.225 | -0.157 | -0.11 | -0.0914 | 0.000284 | 0.0786 | 0.237 | 0.371 | 0.734 | 0.943
[2], compound 2 concentration 0.3125 µM | -0.0761 | -0.0499 | -0.0388 | 0.00861 | 0.0797 | 0.184 | 0.292 | 0.419 | 0.718 | 0.923
[2], compound 2 concentration 0.625 µM | 0.163 | 0.146 | 0.187 | 0.252 | 0.293 | 0.374 | 0.474 | 0.574 | 0.798 | 0.946
[2], compound 2 concentration 1.25 µM | 0.291 | 0.301 | 0.34 | 0.347 | 0.406 | 0.457 | 0.538 | 0.624 | 0.807 | 0.966
[2], compound 2 concentration 5 µM | 0.677 | 0.695 | 0.698 | 0.722 | 0.793 | 0.854 | 0.895 | 0.922 | 0.982 | 0.999
[2], compound 2 concentration 20 µM | 0.792 | 0.82 | 0.846 | 0.876 | 0.911 | 0.94 | 0.968 | 0.986 | 0.999 | 1
